Measured values as given in US4175081A, “5-Substituted thiadiazole ureas” (priority 1977, dated 1979).

Legend:
Crabgrass (CG) [1] = assay: Pre-emergence herbicide test; type: in vivo, Digitaria sanquinalis; details: Digitaria sanguinalis, pre-emergence, 336 h, two weeks after treatment
In short: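 Crabgrass (Digitaria sanquinalis) was surface seeded in 3' plastic pots of potting soil, covered with screened soil, and watered by sub-irrigation in greenhouse trays. Pots were seeded one day before spraying in a hood with a moving belt and fixed nozzle. Plants stayed in the greenhouse on sub-irrigation, and pre-emergence control was rated visually two weeks after treatment.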

[2] = test system: Yellow foxtail grass (YF); assay: Pre-emergence herbicide test; type: in vivo, Setaria glauca; details: Setaria, 336 h, two weeks after treatment
In short: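 Seeds surface-sown in potting soil one day before spraying; compounds applied pre-emergence at 8 or 4 lbs/acre in 38 gallons/acre spray. Pots held in greenhouse with sub-irrigation only. Injury or control rated visually two weeks after treatment.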

Johnson grass (JG) [3] = assay: Pre-emergence herbicide test; type: in vivo, Sorgum helepense; details: Sorghum halepense, 336 h, two weeks after treatment
In short: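 Pots seeded one day before spraying; compound applied pre-emergence at 8 lbs/acre (or 4 lbs/acre) in 38 gallons/acre spray volume. Sub-irrigated in greenhouse; injury/control rated visually two weeks after treatment.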

Barnyard grass (BG) [4] = assay: Pre-emergence herbicide test; type: in vivo; details: Echinochloa crus-galli, 336 h, two weeks after treatment
In short: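 Barnyard grass surface-seeded in potting soil and sprayed pre-emergence one day after seeding, at 8 or 4 lb compound/acre in 38 gal/acre spray volume. Pots kept in greenhouse with sub-irrigation only; injury or control rated visually two weeks after treatment.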

Amaranth pigweed (PW) [5] = assay: Pre-emergence herbicide test; type: in vivo, Amaranthus retroflexus; details: 336 h, two weeks after treatment
In short: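 Pigweed was surface-seeded in potted soil one day before spraying at 8 lbs compound per acre, or 4 lbs/acre, in 38 gallons per acre. Pots were kept in the greenhouse with sub-irrigation only; injury or control was rated visually two weeks after treatment.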

Turnip (TP) [6] = assay: Pre-emergence herbicide test; type: in vivo, Brassica sp.; details: Brassica rapa, pre-emergence, 336 h, two weeks after treatment
In short: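 Turnip (Brassica sp.) seeds were surface sown in 3' plastic pots of potting soil, covered with a thin layer of screened soil, and sub-irrigated in greenhouse trays. Pots were seeded one day ahead of treatment, sprayed pre-emergence under a hood with a fixed nozzle and moving belt, then kept in the greenhouse.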

Cotton (CT) [7] = assay: Pre-emergence herbicide test; type: in vivo, Gossypium hirsutum var. DPL smooth leaf; details: Gossypium hirsutum, 336 h, two weeks after treatment
In short: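 Crop and weed species seeded one day before treatment, then sprayed pre-emergence at 8 lbs actual compound per acre (also 4 lbs/acre formulations) in 38 gallons per acre. Pots kept in greenhouse with sub-irrigation only; injury or control visually rated two weeks after treatment.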

Corn (CN) [8] = assay: Pre-emergence herbicide test; type: in vivo; details: Zea mays, 336 h, two weeks after treatment
In short: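 Four corn seeds per pot, sown at seed-diameter depth one day before spraying, got soil surface treatment at 8 lbs/acre (4 lbs/acre formulations also prepared) in 38 gallons/acre. Pots were greenhouse-held with sub-irrigation only. Injury or control was scored visually two weeks after treatment.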

Bean (BN) [9] = assay: Pre-emergence herbicide test; type: in vivo, Phaseolus vulgaris var. Black Valentine; details: Phaseolus vulgaris, 336 h, two weeks after treatment
In short: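 Black Valentine bean was seeded in potting soil one day before spraying. Compound was applied pre-emergence at 8 lbs/acre (also 4 lbs/acre) in 38 gallons per acre. Plants were sub-irrigated and injury or control was rated visually after two weeks.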

Crabgrass (CG) [10] = assay: Post-emergence herbicide test; type: in vivo, Digitaria sanquinalis; details: Digitaria sanguinalis, post-emergence, 336 h, two weeks after treatment
In short: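 Crabgrass (Digitaria sanquinalis) was surface seeded individually in 3' plastic pots of potting soil, covered with screened soil, and watered by sub-irrigation in greenhouse trays. Planting was staggered so seedlings reached the target stage together. Post-emergence sprays were applied in a hood with a removable belt and fixed nozzle, and control was visually rated two weeks after treatment.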

[11] = test system: Yellow foxtail grass (YF); assay: Post-emergence herbicide test; type: in vivo, Setaria glauca; details: Setaria, 336 h, two weeks after treatment
In short: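 Potted seedlings grown in greenhouse, planting staggered to reach the target stage together, then sprayed post-emergence at 8 lbs actual compound/acre in 38 gallons/acre (4 lbs/acre formulations also prepared). Sub-irrigated afterwards. Injury or control rated visually two weeks after treatment.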

Johnson grass (JG) [12] = assay: Post-emergence herbicide test; type: in vivo, Sorgum helepense; details: Sorghum halepense, 336 h, two weeks after treatment
In short: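 Greenhouse pot-grown seedlings sprayed post-emergence at 8 lbs compound per acre (some at 4 lbs/acre) in 38 gallons per acre spray volume. Sub-irrigated thereafter. Injury/control rated visually two weeks after treatment.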

Barnyard grass (BG) [13] = assay: Post-emergence herbicide test; type: in vivo; details: Echinochloa crus-galli, 336 h, two weeks after treatment
In short: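 Greenhouse pot-grown barnyard grass seedlings sprayed post-emergence at 8 lbs active compound per acre (some at 4 lbs/acre) in 38 gallons per acre, then sub-irrigated. Injury or control rated visually two weeks after treatment.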

Amaranth pigweed (PW) [14] = assay: Post-emergence herbicide test; type: in vivo, Amaranthus retroflexus; details: 336 h, two weeks after treatment
In short: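 Pot-grown pigweed was sprayed post-emergence at the 1–2 true-leaf stage with compound at rates equivalent to 8 lbs per acre (formulations also prepared for 4 lbs/acre) in 38 gallons per acre, using a hood with fixed nozzle. Plants were sub-irrigated in the greenhouse, and injury or control was rated visually two weeks after treatment.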

Turnip (TP) [15] = assay: Post-emergence herbicide test; type: in vivo, Brassica sp.; details: Brassica rapa, post-emergence, 336 h, two weeks after treatment
In short: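 A greenhouse post-emergence herbicide test on turnip. Seeds were sown on the surface of potting soil in 3' plastic pots, lightly covered with screened soil and watered from below. Planting was timed so seedlings had 1 or 2 true leaves above the cotyledons at spraying, done in a hood with a fixed nozzle. Control or injury was scored by eye after two weeks.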

Cotton (CT) [16] = assay: Post-emergence herbicide test; type: in vivo, Gossypium hirsutum var. DPL smooth leaf; details: Gossypium hirsutum, post-emergence, 336 h, two weeks after treatment
In short: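 Cotton (Gossypium hirsutum var. DPL smooth leaf) was grown in 3' plastic pots of potting soil, four seeds per pot, planted at a depth equal to the seed diameter and watered by sub-irrigation. At the stage of expanded cotyledons with the first true leaf 1' long, plants were sprayed post-emergence in a hood with a fixed nozzle over a moving belt. Percent control was rated visually two weeks later.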

Corn (CN) [17] = assay: Post-emergence herbicide test; type: in vivo; details: Zea mays, 336 h, two weeks after treatment
In short: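 Greenhouse seedlings grown in potting soil and sprayed post-emergence at 8 lbs compound/acre (formulations also made for 4 lbs/acre) in 38 gallons/acre spray volume. Watering by sub-irrigation only. Injury or control rated visually two weeks after treatment.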

Bean (BN) [18] = assay: Post-emergence herbicide test; type: in vivo, Phaseolus vulgaris var. Black Valentine; details: Phaseolus vulgaris, post-emergence, 336 h, two weeks after treatment
In short: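 Snapbean (Phaseolus vulgaris var. Black Valentine) was tested post-emergence. Four seeds were sown in 3' plastic pots of potting soil at a depth equal to the seed diameter, then sub-irrigated in greenhouse trays. Planting dates were staggered so plants were sprayed once primary leaves had expanded, with the growing point at the primary leaf nodes.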

[19] = test system: variety of crops and weed species; assay: Pre- and post-emergence herbicide tests, overall assessment of Tables III-VI; type: in vivo; details: data of Tables III-VI
In short: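 Crops and weeds grown in potting soil were sprayed at 8 lbs. compound per acre in 38 gallons per acre, pre-emergence pots seeded one day before treatment. Injury or control was visually rated two weeks after treatment.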

CNC(=O)N(C)c1nnc(C(F)(F)F)s1 [Example 36]
pest or weed control (Crabgrass (CG) [1]; 2 lb/acre): 100%
pest or weed control at 4483.4 g/ha (Crabgrass (CG) [1]; 4 lb/acre): 90%
pest or weed control at 8966.8 g/ha (Crabgrass (CG) [1]; 8 lb/acre): 90%
pest or weed control at 2241.7 g/ha ([2]; 2 lb/acre): 100%
pest or weed control at 4483.4 g/ha ([2]; 4 lb/acre): 90%
pest or weed control at 8966.8 g/ha ([2]; 8 lb/acre): 90%
pest or weed control at 2241.7 g/ha (Johnson grass (JG) [3]; 2 lb/acre): 70%
pest or weed control at 4483.4 g/ha (Johnson grass (JG) [3]; 4 lb/acre): 40%
pest or weed control at 8966.8 g/ha (Johnson grass (JG) [3]; 8 lb/acre): 90%
pest or weed control at 2241.7 g/ha (Barnyard grass (BG) [4]; 2 lb/acre): 80%
pest or weed control at 4483.4 g/ha (Barnyard grass (BG) [4]; 4 lb/acre): 100%
pest or weed control at 8966.8 g/ha (Barnyard grass (BG) [4]; 8 lb/acre): 90%
pest or weed control at 2241.7 g/ha (Amaranth pigweed (PW) [5]; 2 lb/acre): 90%
pest or weed control at 4483.4 g/ha (Amaranth pigweed (PW) [5]; 4 lb/acre): 100%
pest or weed control at 8966.8 g/ha (Amaranth pigweed (PW) [5]; 8 lb/acre): 90%
pest or weed control at 2241.7 g/ha (Turnip (TP) [6]; 2 lb/acre): 100%
pest or weed control at 4483.4 g/ha (Turnip (TP) [6]; 4 lb/acre): 100%
pest or weed control at 8966.8 g/ha (Turnip (TP) [6]; 8 lb/acre): 100%
pest or weed control at 2241.7 g/ha (Cotton (CT) [7]; 2 lb/acre): 80%
pest or weed control at 4483.4 g/ha (Cotton (CT) [7]; 4 lb/acre): 90%
pest or weed control at 8966.8 g/ha (Cotton (CT) [7]; 8 lb/acre): 90%
pest or weed control at 2241.7 g/ha (Corn (CN) [8]; 2 lb/acre): 30%
pest or weed control at 4483.4 g/ha (Corn (CN) [8]; 4 lb/acre): 40%
pest or weed control at 8966.8 g/ha (Corn (CN) [8]; 8 lb/acre): 30%
pest or weed control at 2241.7 g/ha (Bean (BN) [9]; 2 lb/acre): 90%
pest or weed control at 4483.4 g/ha (Bean (BN) [9]; 4 lb/acre): 80%
pest or weed control at 8966.8 g/ha (Bean (BN) [9]; 8 lb/acre): 100%
pest or weed control (Crabgrass (CG) [10]; 2 lb/acre): 70%
pest or weed control at 4483.4 g/ha (Crabgrass (CG) [10]; 4 lb/acre): 90%
pest or weed control at 8966.8 g/ha (Crabgrass (CG) [10]; 8 lb/acre): 100%
pest or weed control ([11]; 2 lb/acre): 100%
pest or weed control at 4483.4 g/ha ([11]; 4 lb/acre): 100%
pest or weed control at 8966.8 g/ha ([11]; 8 lb/acre): 100%
pest or weed control (Johnson grass (JG) [12]; 2 lb/acre): 80%
pest or weed control at 4483.4 g/ha (Johnson grass (JG) [12]; 4 lb/acre): 80%
pest or weed control at 8966.8 g/ha (Johnson grass (JG) [12]; 8 lb/acre): 100%
pest or weed control at 2241.7 g/ha (Barnyard grass (BG) [13]; 2 lb/acre): 100%
pest or weed control at 4483.4 g/ha (Barnyard grass (BG) [13]; 4 lb/acre): 100%
pest or weed control at 8966.8 g/ha (Barnyard grass (BG) [13]; 8 lb/acre): 100%
pest or weed control at 2241.7 g/ha (Amaranth pigweed (PW) [14]; 2 lb/acre): 100%
pest or weed control at 4483.4 g/ha (Amaranth pigweed (PW) [14]; 4 lb/acre): 100%
pest or weed control at 8966.8 g/ha (Amaranth pigweed (PW) [14]; 8 lb/acre): 100%
pest or weed control at 2241.7 g/ha (Turnip (TP) [15]; 2 lb/acre): 100%
pest or weed control at 4483.4 g/ha (Turnip (TP) [15]; 4 lb/acre): 100%
pest or weed control at 8966.8 g/ha (Turnip (TP) [15]; 8 lb/acre): 100%
pest or weed control at 2241.7 g/ha (Cotton (CT) [16]; 2 lb/acre): 100%
pest or weed control at 4483.4 g/ha (Cotton (CT) [16]; 4 lb/acre): 100%
pest or weed control at 8966.8 g/ha (Cotton (CT) [16]; 8 lb/acre): 100%
pest or weed control (Corn (CN) [17]; 2 lb/acre): 70%
pest or weed control at 4483.4 g/ha (Corn (CN) [17]; 4 lb/acre): 100%
pest or weed control at 8966.8 g/ha (Corn (CN) [17]; 8 lb/acre): 100%
pest or weed control at 2241.7 g/ha (Bean (BN) [18]; 2 lb/acre): 100%
pest or weed control at 4483.4 g/ha (Bean (BN) [18]; 4 lb/acre): 100%
pest or weed control at 8966.8 g/ha (Bean (BN) [18]; 8 lb/acre): 100%
herbicidal effectiveness / selectivity, in words [19]: extremely effective when applied to a variety of crops and weed species
